Experiments:
recombinant human FAK1 = target: T1, recombinant human FAK1 (Homo sapiens, UniProt Q05397); assay: FAK1 HTRF assay; type: biochemical
T1 construct: fused on or other part: N-terminal 6xHis tag
Procedure, shortened: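 IC50 values derive from HTRF % inhibition (ratio 665/620 nm, Eu–anti-phosphotyrosine 0.1 nM, SA-APC 12 nM). The kinase step ran 45 min at room temperature, pairing 10 nM His-FAK1(692–end) from baculovirus with 0.5 μM gastrin Tyr87 biotin-peptide and a reagent at 10 μM final, pH 7.4. Compound dilutions began at 10 μM.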

Recombinant Src enzyme = target: T2, Recombinant Src enzyme (Homo sapiens, UniProt P12931); assay: Src HTRF assay; type: biochemical
T2 construct: purchased Millipore 14-326; host or cells: Sf21 insect cells
T2 sequence (P12931 whole entry): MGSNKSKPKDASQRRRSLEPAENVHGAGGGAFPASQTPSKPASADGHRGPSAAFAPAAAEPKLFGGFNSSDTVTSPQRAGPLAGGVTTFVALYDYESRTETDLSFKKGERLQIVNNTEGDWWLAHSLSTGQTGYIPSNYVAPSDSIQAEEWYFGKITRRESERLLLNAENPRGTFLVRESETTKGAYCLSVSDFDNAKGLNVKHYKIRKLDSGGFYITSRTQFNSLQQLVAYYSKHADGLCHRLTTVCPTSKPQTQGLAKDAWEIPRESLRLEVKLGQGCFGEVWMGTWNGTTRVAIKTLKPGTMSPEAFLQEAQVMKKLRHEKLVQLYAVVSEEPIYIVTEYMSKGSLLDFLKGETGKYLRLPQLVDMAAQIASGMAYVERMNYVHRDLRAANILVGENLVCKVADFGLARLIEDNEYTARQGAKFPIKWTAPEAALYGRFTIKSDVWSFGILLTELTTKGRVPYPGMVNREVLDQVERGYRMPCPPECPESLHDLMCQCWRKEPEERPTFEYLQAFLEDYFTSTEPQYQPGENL
Description: Enzyme assay buffer, supplements, and compounds were prepared as described in the FAK HTRF assay.
Recombinant Src enzyme expressed in Sf21 insect cells was obtained (Millipore, Cat No. 14-326, Lot # D8CN006U-K). A 35 μM stock was used at a final concentration of 5 nM in the assay.
Tyk2 synthetic peptide-Biotinylated-N-terminal tag-[…]
A custom made substrate, a Tyk2 synthetic peptide, biotinylated with an N-terminal tag was obtained (Biopeptide and Sigma, Cat. No. 14918001 VC80021). A 100 μM stock was used at a final concentration of 0.5 μM in the assay.
A 10 mM stock in 100 μL enzyme assay buffer pH7.4 was prepared freshly and used at a final concentration of 10 μM in the assay.
Dasatinib (Bristol-Myers Squibb)
The assay procedure was the same as discussed above.

T1 sequence (Q05397 422-680 limits assumed): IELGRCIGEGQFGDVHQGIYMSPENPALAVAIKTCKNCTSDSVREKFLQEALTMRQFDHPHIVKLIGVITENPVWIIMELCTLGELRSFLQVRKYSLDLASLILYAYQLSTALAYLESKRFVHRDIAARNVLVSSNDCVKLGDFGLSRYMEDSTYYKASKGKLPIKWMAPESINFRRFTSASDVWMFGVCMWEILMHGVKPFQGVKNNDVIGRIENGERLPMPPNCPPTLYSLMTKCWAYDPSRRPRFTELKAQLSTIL

| SMILES | IC50 (recombinant human FAK1) [µM] | IC50 (Recombinant Src enzyme) [µM] |
| --- | --- | --- |
| O=C1CCc2cc(Nc3ncc4ccn(S(=O)(=O)c5cccc(OC(F)(F)F)c5)c4n3)ccc2N1 [Example 45] | > 1 | > 1 |
| COc1ccccc1S(=O)(=O)n1ccc2cnc(Nc3cncnc3)nc21 [Example 146] | > 1 | > 1 |
| CC(=O)Nc1ccc(S(=O)(=O)n2ccc3cnc(Nc4ccc(CC#N)cc4)nc32)cc1 [Example 183] | > 1 | > 1 |
| CN(c1ncccc1Cn1cc2cnc(Nc3ccc4c(c3)CCC(=O)N4)nc2n1)S(C)(=O)=O [Example 190] | > 1 | > 1 |
| CN(c1ncccc1Cn1ccc2cnc(Nc3ccc4c(c3)NC(=O)CC4)nc21)S(C)(=O)=O [Example 209] | < 0.02 | < 0.02 |
| O=C1CCc2cc(Nc3ncc4ccn(S(=O)(=O)c5cccc6ccccc56)c4n3)ccc2N1 [Example 223] | < 0.02 | < 0.02 |
| CN(c1ncccc1Cn1ccc2cnc(Nc3ncccn3)nc21)S(C)(=O)=O [Example 227] | > 1 | > 1 |
| O=C1CCc2cc(Nc3ncc4cnn(S(=O)(=O)c5cccc6cccnc56)c4n3)ccc2N1 [Example 228] | < 0.02 | < 0.02 |
| N#Cc1ccccc1Nc1ncc2ccn(S(=O)(=O)c3cccc4cccnc34)c2n1 [Example 359] | < 0.02 | > 1 |
| COc1cc(N2CCNCC2)ccc1Nc1ncc2ccn(S(=O)(=O)c3cc(C)cc4cccnc34)c2n1 [Example 360] | < 0.02 | > 1 |
| O=S(=O)(c1cccc2cccnc12)n1ccc2cnc(Nc3ccc(N4CCNCC4)cc3OC3CCC3)cc21 [Example 362] | > 1 | > 1 |
| Cc1cc(Nc2cc3c(cn2)cnn3S(=O)(=O)c2cccc3cccnc23)ccc1N1CCOCC1 [Example 374] | < 0.02 | > 1 |
| CN(c1ncccc1Cn1ccc2cnc(Nc3ccc(N4CCC(O)CC4)cc3)cc21)S(C)(=O)=O [Example 384] | – | > 1 |
| CN(c1ccccc1Cn1ccc2cnc(Nc3ccc(N4CCOCC4)cc3)cc21)S(C)(=O)=O [Example 385] | < 0.02 | > 1 |
| CN(c1ncccc1Cn1ccc2cnc(Nc3ccc(N4CCN(CCO)CC4)cc3)cc21)S(C)(=O)=O [Example 393] | – | > 1 |
| COc1cc(N2CCC(O)CC2)ccc1Nc1cc2c(cn1)cnn2S(=O)(=O)c1cccc2cccnc12 [Example 396] | < 0.02 | > 1 |
| Cc1ccnc2c(S(=O)(=O)n3ccc4cnc(Nc5ccc(N6CCC(O)CC6)cc5)nc43)cccc12 [Example 402] | – | > 1 |
| COc1cc(N2CCN(C)CC2)ccc1Nc1cc2c(ccn2S(=O)(=O)c2cccc3cccnc23)cn1 [Example 407] | < 0.02 | > 1 |
| N#Cc1ccccc1S(=O)(=O)n1ccc2cnc(Nc3ccc(N4CCC(O)CC4)cc3)cc21 [Example 414] | < 0.02 | > 1 |
| O=S(=O)(c1cccc2cccnc12)n1ccc2cnc(Nc3ccc(N4CCNCC4)cc3Cl)nc21 [Example 418] | < 0.02 | > 1 |
| COc1cc(N2CCN(C)CC2)ccc1Nc1ncc2ccn(Cc3ccccc3N(C)S(C)(=O)=O)c2n1 [Example 424] | < 0.02 | > 1 |
| COc1cc(N2CCC(OC)CC2)ccc1Nc1cc2c(ccn2S(=O)(=O)c2cccc3cccnc23)cn1 [Example 430] | < 0.02 | > 1 |
| CN(c1ncccc1CN1CCc2cnc(Nc3ccc(N4CCNCC4)cc3)nc21)S(C)(=O)=O [Example 433] | – | > 1 |
| Cc1cc(Nc2ncc3ccn(Cc4ccccc4N(C)S(C)(=O)=O)c3n2)ccc1N1CCNCC1 [Example 447] | < 0.02 | < 0.02 |

The next lines start with the values.

| IC50 (recombinant human FAK1) [µM] | IC50 (Recombinant Src enzyme) [µM] | SMILES |
| --- | --- | --- |
| – | > 1 | C[C@H]1CNCCN1c1ccc(Nc2cc3c(ccn3S(=O)(=O)c3ccccc3C#N)cn2)cc1 [Example 477] |
| < 0.02 | < 0.02 | C[C@H]1CN(c2ccc(Nc3ncc4ccn(Cc5ccccc5N(C)S(C)(=O)=O)c4n3)cc2)CCN1C [Example 491] |
| < 0.02 | > 1 | COc1cc(N2CCN(C)CC2)ccc1Nc1cc2c(ccn2S(=O)(=O)c2ccccc2C#N)cn1 [Example 493] |
| < 0.02 | < 0.02 | CN(c1ccccc1Cn1ccc2cnc(Nc3ccc(N4CCN5CCCC5C4)cc3)nc21)S(C)(=O)=O (stereo not drawn) [Example 496] |
| – | > 1 | COc1cc(C(=O)N2CCOCC2)ccc1Nc1ncc2ccn(Cc3ccccc3N(C)S(C)(=O)=O)c2n1 [Example 503] |
| – | > 1 | CC1(C)CN(S(=O)(=O)c2cccc3cccnc23)c2nc(Nc3ccc4c(c3)CC(=O)N4)ncc21 [Example 511] |
| – | > 1 | C[C@H]1CN(c2ccc(Nc3ncc4ccn(Cc5ccccc5N(C)S(C)(=O)=O)c4n3)nc2)CCN1 [Example 565] |
| > 1 | > 1 | COc1cccc(Nc2ncc3ccn(Cc4ccccc4N(CCN4CCNCC4)S(C)(=O)=O)c3n2)c1 [Example 583] |
| > 1 | > 1 | C[C@H]1CN(c2ccc(Nc3ncc4ccn(Cc5cccnc5N(C)S(C)(=O)=O)c4n3)nc2)CCN1 [Example 585, (S)—N-methyl-N-(3-((2-((5-(3-methylpiperazin-1-yl)pyridin-2-yl)amino)-7H-pyrrolo[2,3-d]pyrimidin-7-yl)methyl)pyridin-2-yl)methanesulfonamide] |
| – | > 1 | CN(C)C1CN(c2ccc(Nc3ncc4c(n3)N(S(=O)(=O)c3cccc5cccnc35)CC4(C)C)cc2)C1 [Example 603] |
| < 0.02 | > 1 | CN(C)C1CCN(c2ccc(Nc3cc4c(cn3)C(C)(C)CN4S(=O)(=O)c3cccc4cccnc34)cc2)CC1 [Example 611] |
| – | > 1 | C[C@H]1CN(c2ccc(Nc3cc4c(ccn4Cc4cccnc4N(C)S(C)(=O)=O)cn3)cc2)CCN1 [Example 616] |
| – | > 1 | CC1(C)CN(S(=O)(=O)c2cccc3cccnc23)c2nc(Nc3ccc(N4CCC(CO)CC4)cc3)ncc21 [Example 625] |
| – | > 1 | COc1cc(Nc2ncc3c(n2)N(S(=O)(=O)c2cccc4cccnc24)CC3(C)C)ccc1N1CCN[C@@H](C)C1 [Example 627] |
| < 0.02 | > 1 | COc1cc(N2CCC(N(C)C)CC2)ccc1Nc1ncc2c(n1)N(S(=O)(=O)c1cccc3cccnc13)CC2(C)C [Example 650] |
| – | > 1 | COc1ccc(Cn2ccc3cnc(Nc4ccc(N5CCN[C@H](C)C5)cc4)nc32)c(N(C)S(C)(=O)=O)c1 [Example 671] |
| – | > 1 | CC1(C)CN(S(=O)(=O)c2cccc3cccnc23)c2nc(Nc3ccc(NC4CCNCC4)cc3)ncc21 [Example 673] |
| – | > 1 | C[C@H]1CN(c2ccc(Nc3ncc4ccn(Cc5ccc(C#N)cc5N(C)S(C)(=O)=O)c4n3)cc2)CCN1 [Example 685] |

| IC50 (recombinant human FAK1) [µM] | IC50 (Recombinant Src enzyme) [µM] | SMILES |
| --- | --- | --- |
| – | > 1 | CN(C)C1CCN(c2ccc(Nc3ncc4ccn(Cc5ccc(C#N)cc5N(C)S(C)(=O)=O)c4n3)cc2)CC1 [Example 689] |
| < 0.02 | > 1 | CC1(C)CN(c2ccccn2)c2nc(Nc3ccc4[nH]cc(C5=CCNCC5)c4c3)ncc21 [Example 713] |
| – | > 1 | COc1ccc(Cn2ccc3cnc(Nc4ccc(N5CCN[C@@H](C)C5)cc4)nc32)c(N(C)S(C)(=O)=O)c1 [Example 714] |
| – | > 1 | Cc1cn(Cc2cccnc2N(C)S(C)(=O)=O)c2nc(Nc3ccc(N4CCNCC4)cc3)ncc12 [Example 719] |
| – | > 1 | CN(c1ncccc1Cn1cc(F)c2cnc(Nc3ccc(N4CCNCC4)cc3)nc21)S(C)(=O)=O [Example 722] |
| – | > 1 | CN(C)C1CCN(c2ccc(Nc3ncc4c(C#N)cn(Cc5cccnc5N(C)S(C)(=O)=O)c4n3)cc2)CC1 [Example 728] |
| > 1 | > 1 | C[C@H]1CN(c2ccc(Nc3ncc4ccn(Cc5ccccc5NS(=O)(=O)CCCF)c4n3)c(F)c2)CCN1 [Example 729] |
| > 1 | > 1 | C[C@H]1CN(c2ccc(Nc3ncc4ccn(Cc5ccccc5N(C)S(=O)(=O)CCCF)c4n3)c(F)c2)CCN1 [Example 730] |
| – | > 1 | CN(c1ccccc1Cn1cc(C#N)c2cnc(Nc3ccc(N4CCNCC4)cc3)nc21)S(C)(=O)=O [Example 731] |
| – | > 1 | CN1c2c(Cn3ccc4cnc(Nc5ccc(N6CCNCC6)cc5)nc43)cccc2CS1(=O)=O [Example 756] |
| – | > 1 | CC1(C)CN(S(=O)(=O)c2cccc3ccccc23)c2nc(Nc3ccc(N4CCNCC4)cc3)ncc21 [Example 760] |
| – | > 1 | C[C@H]1CN(c2ccc(Nc3ncc4ccn(Cc5cccc6c5N(C)S(=O)(=O)C6)c4n3)cc2)CCN1 [Example 764] |
| – | > 1 | CC1(C)CN(S(=O)(=O)c2cccc3cccnc23)c2nc(Nc3ccc(N4CCN(C5CC5)CC4)cc3)ncc21 [Example 771] |
| – | > 1 | COc1ccc(Cn2ccc3cnc(Nc4ccc(N5CCNCC5)cc4)nc32)c(N(C)S(C)(=O)=O)c1 [Example 772] |
| – | > 1 | CC(c1ccccc1N(C)S(C)(=O)=O)n1ccc2cnc(Nc3ccc(N4CCN[C@H](C)C4)cc3)nc21 (stereo partly drawn) [Example 779] |
| – | > 1 | C[C@H]1CN(c2ccc(Nc3cc4c(cn3)cnn4Cc3cccnc3N(C)S(C)(=O)=O)cc2)CCN1 [Example 781] |
| – | > 1 | C[C@H]1CN(c2ccc(Nc3ncc4nnn(Cc5cccnc5N(C)S(C)(=O)=O)c4n3)cc2)CCN1 [Example 790] |
| – | > 1 | CC(c1ccccc1Cn1ccc2cnc(Nc3ccc(N4CCC(N(C)C)CC4)cc3)nc21)S(C)(=O)=O (stereo not drawn) [Example 791] |
